Starred links: 1 amine or outer side, 2 acyl side, 3 side chain; linkers in the order of their positions; H or OH if unused. Positions of bridges follow the written chain, without caps; N, C: chain ends. Non-standard residues stand in square brackets, D forms with d. Residues, ends and D or L forms follow the SMILES beside them. *: point of attachment. Tyr(3-F) = N[C@@H](Cc1ccc(O)c(F)c1)C(=O)O; NMeW = CN[C@@H](Cc1c[nH]c2ccccc12)C(=O)O; NMeF = CN[C@@H](Cc1ccccc1)C(=O)O; NMeGABA = CN(CCCC(=O)[*:2])[*:1]; NMeI = CC[C@H](C)[C@H](NC)C(=O)O; NMeL = CN[C@@H](CC(C)C)C(=O)O; NMeV = CN[C@H](C(=O)O)C(C)C; NMeA = CN[C@@H](C)C(=O)O; Piperidide = C1CCN(*)CC1; Sar = CNCC(=O)O; tBu = CC(C)(C)*
Test: Caco-2 membrane permeability, improved method as used in the following Examples (96-well, 20 to 24 h preincubation)
Format: in vitro ADME
Settings: human, Caco-2, Caco-2 (cm/sec)
Description: In the following Examples, membrane permeability was measured in accordance with the improved method established as described above. Specifically, Caco-2 cells were cultured on a 96-well Transwell for three weeks, after which DMEM+FaSSIF (1% DMSO)+compound were added to the apical side and DMEM was added to the basal side, and the cells were preincubated at 5% CO2, 37° C., and 80 rpm for 20 to 24 hours. Following the preincubation, measurement of membrane permeability was initiated by removing the preincubation solution on the apical and basal sides by suction, washing the membrane, and adding FaSSIF/HBSS buffer (1% DMSO) (pH 6.0) containing the compound to the apical side and HBSS buffer (4% BSA) (pH 7.4) to the basal side. Each well was shaken at 5% CO2, 37° C., and 80 rpm, and 180 minutes after the initiation, the sample on the basal side was collected and the permeation amount was measured by LC/MS. The membrane permeability coefficient (Papp) was calculated from the permeation amount. Herein, the terms “Caco-2 (cm/sec)” in the columns in the tables and “Papp (cm/sec)” are used in the same meaning.

Row | Structure (SMILES) | Papp A→B at 180 min
1 | CC[C@H](C)[C@@H]1NC(=O)[C@H](CC(C)C)N(C)C(=O)CN(C)C(=O)C[C@@H](C(=O)N2CCCCC2)NC(=O)[C@H](C)N(C)C(=O)[C@H](COC(C)(C)C)NC(=O)[C@H](CC(C)C)N(C)C(=O)[C@H](CC(C)C)N(C)C(=O)CN(C)C(=O)[C@H](Cc2c[nH]c3ccccc23)NC(=O)[C@H](CC(C)C)N(C)C1=O [pd103] ([Sar][NMeL]I[NMeL]W[Sar][NMeL][NMeL]S(tBu)[NMeA]D-Piperidide; lactam N-11) | 0.093 ×10⁻⁶ cm/s
2 | CC(C)C[C@H]1C(=O)N(C)[C@@H](Cc2c[nH]c3ccccc23)C(=O)N(C)[C@@H](Cc2ccccc2)C(=O)N[C@@H]([C@@H](C)O)C(=O)N(C)[C@@H](C)C(=O)N(C)[C@@H](CC(C)C)C(=O)N[C@H](C(=O)N2CCCCC2)CC(=O)N(C)[C@@H](C)C(=O)N(C)[C@@H](CC(C)C)C(=O)N(C)[C@@H](CC(C)C)C(=O)N[C@@H](C)C(=O)N1C [pd104] ([NMeA][NMeL][NMeL]A[NMeL][NMeW][NMeF]T[NMeA][NMeL]D-Piperidide; lactam N-11) | 0.025 ×10⁻⁶ cm/s
3 | CC(C)C[C@H]1C(=O)N(C)[C@@H](CC(C)C)C(=O)N(C)[C@@H](Cc2c[nH]c3ccccc23)C(=O)N[C@@H]([C@@H](C)O)C(=O)N(C)[C@@H](C)C(=O)N(C)[C@@H](CC(C)C)C(=O)N[C@H](C(=O)N2CCCCC2)CC(=O)N(C)[C@@H](C)C(=O)N(C)[C@@H](CC(C)C)C(=O)N(C)[C@@H](CC(C)C)C(=O)N[C@@H](C)C(=O)N1C [pd105] ([NMeA][NMeL][NMeL]A[NMeL][NMeL][NMeW]T[NMeA][NMeL]D-Piperidide; lactam N-11) | 0.28 ×10⁻⁶ cm/s
4 | CC(C)C[C@@H]1NC(=O)[C@H](Cc2c[nH]c3ccccc23)N(C)C(=O)[C@@H](C(C)C)NC(=O)C[C@@H](C(=O)N2CCCCC2)NC(=O)[C@H](CC(C)C)N(C)C(=O)[C@H](CC(C)C)N(C)C(=O)[C@H](COC(C)(C)C)NC(=O)[C@H](CC(C)C)N(C)C(=O)CN(C)C(=O)[C@H]([C@@H](C)O)NC(=O)[C@H](CC(C)C)N(C)C1=O [pd106] ([dV][NMeW]L[NMeL]T[Sar][NMeL]S(tBu)[NMeL][NMeL]D-Piperidide; lactam N-11) | 0.36 ×10⁻⁶ cm/s
5 | CC[C@H](C)[C@@H]1NC(=O)[C@H](CC(C)C)N(C)C(=O)CCCN(C)C(=O)C[C@@H](C(=O)N2CCCCC2)NC(=O)[C@H](CC(C)C)N(C)C(=O)[C@H](CC(C)C)N(C)C(=O)[C@H]([C@@H](C)O)NC(=O)[C@H](CC(C)C)N(C)C(=O)[C@H](COC(C)(C)C)NC(=O)[C@H](Cc2c[nH]c3ccccc23)N(C)C(=O)[C@H](Cc2ccccc2)N(C)C1=O [pd107] ([NMeGABA][NMeL]I[NMeF][NMeW]S(tBu)[NMeL]T[NMeL][NMeL]D-Piperidide; lactam N-11) | 0.17 ×10⁻⁶ cm/s
6 | CC[C@H](C)[C@@H]1NC(=O)[C@H](CC(C)C)N(C)C(=O)[C@@H](C)NC(=O)C[C@@H](C(=O)N2CCCCC2)NC(=O)[C@H](C(C)C)N(C)C(=O)[C@H](CC(C)C)N(C)C(=O)[C@H](COC(C)(C)C)NC(=O)[C@H](CC(C)C)N(C)C(=O)CN(C)C(=O)[C@H](Cc2c[nH]c3ccccc23)NC(=O)[C@H](CC(C)C)N(C)C1=O [pd108] ([dA][NMeL]I[NMeL]W[Sar][NMeL]S(tBu)[NMeL][NMeV]D-Piperidide; lactam N-11) | 0.87 ×10⁻⁶ cm/s
7 | CC(C)C[C@H]1C(=O)N(C)[C@@H](Cc2c[nH]c3ccccc23)C(=O)N(C)[C@@H](Cc2ccccc2)C(=O)N[C@@H]([C@@H](C)O)C(=O)N(C)[C@@H](C)C(=O)N(C)[C@@H](CC(C)C)C(=O)N[C@H](C(=O)N2CCCCC2)CC(=O)N(C)[C@@H](C)C(=O)N(C)[C@@H](CC(C)C)C(=O)N(C)[C@@H](CC(C)C)C(=O)N[C@@H](C(C)C)C(=O)N1C [pd109] ([NMeA][NMeL][NMeL]V[NMeL][NMeW][NMeF]T[NMeA][NMeL]D-Piperidide; lactam N-11) | 0.0092 ×10⁻⁶ cm/s
8 | CC[C@H](C)[C@@H]1NC(=O)[C@H](CC(C)C)N(C)C(=O)CCCN(C)C(=O)C[C@@H](C(=O)N2CCCCC2)NC(=O)[C@H](CC(C)C)N(C)C(=O)[C@H](C)N(C)C(=O)[C@H](Cc2c[nH]c3ccccc23)NC(=O)[C@H](CC(C)C)N(C)C(=O)[C@H](COC(C)(C)C)NC(=O)[C@H](CC(C)C)N(C)C(=O)[C@H](CC(C)C)N(C)C1=O [pd110] ([NMeGABA][NMeL]I[NMeL][NMeL]S(tBu)[NMeL]W[NMeA][NMeL]D-Piperidide; lactam N-11) | 0.29 ×10⁻⁶ cm/s
9 | CC[C@H](C)[C@H]1C(=O)N[C@@H]([C@@H](C)O)C(=O)N(C)CC(=O)N(C)[C@@H](CC(C)C)C(=O)N[C@H](C(=O)N2CCCCC2)CC(=O)N(C)[C@@H](CC(C)C)C(=O)N[C@@H](CC(C)C)C(=O)N(C)[C@@H](CC(C)C)C(=O)N(C)[C@@H](Cc2c[nH]c3ccccc23)C(=O)N[C@@H](CC(C)C)C(=O)N(C)[C@@H](Cc2ccccc2)C(=O)N1C [pd111] ([NMeL]L[NMeL][NMeW]L[NMeF][NMeI]T[Sar][NMeL]D-Piperidide; lactam N-11) | 0.16 ×10⁻⁶ cm/s
10 | CC[C@H](C)[C@@H]1NC(=O)[C@H](Cc2ccccc2)N(C)C(=O)[C@@H](C)NC(=O)C[C@@H](C(=O)N2CCCCC2)NC(=O)[C@H](CC(C)C)N(C)C(=O)[C@H](C)N(C)C(=O)[C@H](COC(C)(C)C)NC(=O)[C@H](C)N(C)C(=O)CN(C)C(=O)[C@H](Cc2ccc(O)cc2)NC(=O)[C@H](CC(C)C)N(C)C1=O [pd112] ([dA][NMeF]I[NMeL]Y[Sar][NMeA]S(tBu)[NMeA][NMeL]D-Piperidide; lactam N-11) | 0.11 ×10⁻⁶ cm/s
11 | CC(C)C[C@@H]1NC(=O)[C@H](CC(C)C)N(C)C(=O)[C@H](C)N(C)C(=O)[C@@H](C(C)C)NC(=O)C[C@@H](C(=O)N2CCCCC2)NC(=O)[C@H]([C@@H](C)O)NC(=O)[C@H](C)N(C)C(=O)[C@H](C)N(C)C(=O)[C@H](CC(C)C)N(C)C(=O)[C@H](Cc2ccc(O)c(F)c2)NC(=O)[C@H](Cc2ccccc2)N(C)C1=O [pd113] ([dV][NMeA][NMeL]L[NMeF][Tyr(3-F)][NMeL][NMeA][NMeA]TD-Piperidide; lactam N-11) | 0.029 ×10⁻⁶ cm/s
12 | CC(C)C[C@H]1C(=O)N[C@H](C(=O)N2CCCCC2)CC(=O)N(C)CCCC(=O)N(C)[C@@H](CC(C)C)C(=O)N[C@@H](Cc2ccc(O)c(F)c2)C(=O)N(C)[C@@H](CC(C)C)C(=O)N(C)[C@@H](Cc2ccccc2)C(=O)N[C@@H](COC(C)(C)C)C(=O)N(C)[C@@H](CC(C)C)C(=O)N[C@@H]([C@@H](C)O)C(=O)N(C)CC(=O)N1C [pd114] ([NMeGABA][NMeL][Tyr(3-F)][NMeL][NMeF]S(tBu)[NMeL]T[Sar][NMeL]D-Piperidide; lactam N-11) | 0.17 ×10⁻⁶ cm/s
13 | CC[C@H](C)[C@H]1C(=O)N[C@@H](Cc2ccc(O)cc2)C(=O)N(C)CC(=O)N(C)[C@@H](CC(C)C)C(=O)N[C@H](C(=O)N2CCCCC2)CC(=O)N(C)[C@@H](C)C(=O)N[C@@H](CC(C)C)C(=O)N(C)[C@@H](C)C(=O)N(C)[C@@H](Cc2ccccc2)C(=O)N[C@@H](C(C)C)C(=O)N(C)[C@@H](C)C(=O)N1C [pd116] ([NMeA]L[NMeA][NMeF]V[NMeA][NMeI]Y[Sar][NMeL]D-Piperidide; lactam N-11) | 0.14 ×10⁻⁶ cm/s
